Results on two compounds are retold here after patent publication US8841233B2, “Herbicidal compositions comprising 4-amino-3-chloro-5-fluoro-6-(4-chloro-2-fluoro-3-methoxyphenyl) pyridine-2-carboxylic acid or a derivative thereof and 4-hydroxyphenyl-pyruvate dioxygenase (HPPD) inhibitors” (Dow Agrosciences LLC, priority 2012, dated 2014).

One experiment concerns ECHCO. The experiment in a line: In-water applied weed control, transplanted paddy rice, greenhouse (Example II). The experiment is classed as in vivo, Echinochloa colona (L.) Link. The protocol: (§1) Evaluation of in-Water Applied Herbicidal Mixtures for Weed Control in Transplanted Paddy Rice
(§2) Weed seeds or nutlets of the desired test plant species were planted in puddled soil (mud) prepared by mixing a shredded, non-sterilized mineral soil (50.5 percent silt, 25.5 percent clay, and 24 percent sand, with a pH of about 7.6 and an organic matter content of about 2.9 percent) and water at a 1:1 volumetric ratio. The prepared mud was dispensed in 365 mL aliquots into 16-ounce (oz.) non-perforated plastic pots with a surface area of 86.59 square centimeters (cm^2) leaving a headspace of 3 centimeters (cm) in each pot. Mud was allowed to dry overnight prior to planting or transplanting. Rice seeds were planted in Sun Gro MetroMix® 306 planting mixture, which typically has a pH of 6.0 to 6.8 and an organic matter content of about 30 percent, in plastic plug trays. Seedlings at the second or third leaf stage of growth were transplanted into 840 mL of mud contained in 32-oz. non-perforated plastic pots with a surface area of 86.59 cm^2 4 days prior to herbicide application. The paddy was created by filling the headspace of the pots with 2.5 to 3 cm of water. When required to ensure good germination and healthy plants, a fungicide treatment and/or other chemical or physical treatment was applied. The plants were grown for 4-22 days in a greenhouse with an approximate 14 h photoperiod which was maintained at about 29′C during the day and 26° C. during the night. Nutrients were added as Osmocote® (19:6:12, N:P:K+ minor nutrients) at 2 g per 16-oz. pot and 4 g per 32-oz. pot. Water was added on a regular basis to maintain the paddy flood, and supplemental lighting was provided with overhead metal halide 1000-Watt lamps as necessary. The plants were employed for testing when they reached the first through fourth true leaf stage.
Treatments consisted of the acid or esters of 4-amino-3-chloro-5-fluoro-6-(4-chloro-2-fluoro-3-methoxy-phenyl)pyridine-2-carboxylic acid (compound A) each formulated as an SC (suspension concentrate) and various herbicidal components alone and in combination. Forms of compound A were applied on an acid equivalent basis. […]
(§3) Treatment requirements for each compound or herbicidal component were calculated based upon the rates being tested, the concentration of active ingredient or acid equivalent in the formulation, an application volume of 2 mL per component per pot, and an application area of 86.59 cm^2 per pot.
(§4) For formulated compounds, a measured amount was placed in an individual 100 or 200 mL glass vial and was dissolved in a volume of 1.25% (v/v) Agri-Dex® crop oil concentrate to obtain application solutions. […]

In the next experiment the test system is SCPJU. The description is as above. The experiment is classed as in vivo, Schoenoplectus juncoides (Roxb.) Palla. As to conditions: 4.38 gae/ha. The protocol:
as §1
as §2, with “Water was added on a regular basis to maintain the paddy flood, and supplemental lighting was provided with overhead metal halide 1000-Watt lamps as necessary. The plants were employed for testing when they reached the first through fourth true leaf stage.” left out
as §3, §4

The subject of another experiment is IPOHE. Nature of the experiment: Pre-emergence soil-applied weed control, greenhouse (Example III). The experiment is classed as in vivo, Ipomoea hederacea (L.) Jacq. The text has this:
Evaluation of Pre-emergence Soil-Applied Herbicidal Mixtures for Weed Control
Seeds or nutlets of the desired test plant species were planted in a soil matrix prepared by mixing a loam soil (32 percent silt, 23 percent clay, and 45 percent sand, with a pH of about 6.5 and an organic matter content of about 1.9 percent) and calcareous grit in an 80 to 20 ratio. The soil matrix was contained in plastic pots with a volume of 1 quart and a surface area of 83.6 square centimeters (cm^2).
Treatments consisted of the benzyl ester of 4-amino-3-chloro-5-fluoro-6-(4-chloro-2-fluoro-3-methoxy-phenyl)pyridine-2-carboxylic acid (compound A) formulated as an SC (suspension concentrate) and various herbicidal components alone and in combination. Forms of compound A were applied on an acid equivalent basis.
Other herbicidal components were applied on an acid equivalent or active ingredient basis and included the 4-hydroxyphenyl pyruvate dioxygenase (HPPD)-inhibiting herbicide, isoxaflutole, formulated as Balance Pro®.
Treatment requirements were calculated based upon the rates being tested, the concentration of active ingredient or acid equivalent in the formulation, and a 12 mL application volume at a rate of 187 L/ha.
For treatments comprised of formulated compounds, measured amounts of compounds were placed individually in 25 mL glass vials and diluted in a volume of 1.25% (v/v) Agri-Dex® crop oil concentrate (COC) to obtain 12× stock solutions. […] Application solutions were prepared by adding an appropriate amount of each stock solution (e.g., 1 mL) and diluted to the appropriate final concentrations with the addition of 10 mL of an aqueous mixture of 1.25% (v/v) COC so that the final spray solutions contained 1.25% (v/v) COC.
All stock solutions and applications solutions were visually inspected for compound compatibility prior to application. Spray solutions were applied to the soil with an overhead Mandel track sprayer equipped with a 8002E nozzles calibrated to deliver 187 L/ha over an application area of 0.503 m^2 at a spray height of 18 inches (46 cm) above average pot height. Control pots were sprayed in the same manner with the solvent blank.
The treated and control pots were placed in a greenhouse and top watered as needed. When required to ensure good germination and healthy plants, a fungicide treatment and/or other chemical or physical treatment was applied. […] After approximately 4 weeks, the condition of the test plants as compared with that of the untreated plants was determined visually and scored on a scale of 0 to 100 percent where 0 corresponds to no injury or growth inhibition and 100 corresponds to complete kill. […]

With `COc1c(Cl)ccc(-c2nc(C(=O)O)c(Cl)c(N)c2F)c1F` [Compound A Acid, 4-amino-3-chloro-6-(4-chloro-2-fluoro-3-methoxyphenyl)-5-fluoropyridine-2-carboxylic acid], the “Visual Weed Control (%) - 21 DAA ECHCO Obs” value in the experiment with ECHCO (8.75 gae/ha) turned out to be 0%; in the experiment on ECHCO (17.5 gae/ha), 20%.
As for `COc1c(Cl)ccc(-c2nc(C(=O)OCc3ccccc3)c(Cl)c(N)c2F)c1F` [Compound A Benzyl Ester, benzyl ester of 4-amino-3-chloro-5-fluoro-6-(4-chloro-2-fluoro-3-methoxy-phenyl)pyridine-2-carboxylic acid], in the experiment on SCPJU, the “Visual Weed Control (%) - 21 DAA SCPJU Obs” value is 70%. The “Visual Weed Control (%) - 32 DAA IPOHE Obs” value in the experiment on IPOHE (8 gae/ha) is 5%; in the experiment with IPOHE (16 gae/ha) it was 10%; with IPOHE (32 gae/ha), 10%.
